Where “and” joins values, the source holds several entries; their conditions need not be identical. Equal entries are not always repeated.
Experiments:
MOLM-14 cells [1] = experiment: Quantification of intracellular drug concentration by LC-MS; type: in vitro ADME; conditions: for Intracellular concentration: Concentration of compound, AVE / intracellular amount, AVE / intracellular amount / Intracellular concentration: Concentration of compound: 200 nM; for Intracellular concentration: Concentration of compound, AVE / intracellular amount, AVE: average of 3 replicates; for intracellular amount: initial amount 0.4000 nmol; for Intracellular concentration: Concentration of compound: sample volume 400 µL
Procedure: MOLM-14 cells were seeded at a density of 0.5 × 10^6 per mL in 2 mL medium. […] The samples were immediately centrifuged at 12,000 × g for 15 min at 4 °C, then removing the supernatant. In all, 400 μL of NP-40 lysis buffer was added to the cell pellet and mixed thoroughly. The mixtures were rocked for 1 h at 4 °C and centrifuged at 12,000 × g for 15 min at 4 °C. Then the supernatant was transferred to new EP tubes. In total, 20 µL supernatant was extracted with 180 µL of acetonitrile (containing internal standard: 250 nM of RNC-Ctrl) and centrifuged at the same conditions described above. Take 75 μL of supernatant for liquid chromatography-mass spectrometry analysis.
The mass spectrometer was operated in positive SIM ion mode (fragmentor 120 V; cycle time 0.6 s/cycle; Agilent Technologies 6130 Quadrupole LC/MS).

MOLM-14 cells [2] = experiment: Quantitative multiplexed (TMT) proteomics of compound-treated cells; type: cell-based, Homo sapiens; conditions: 200 nM, 24 h
Procedure: For proteomic study of the cellular protein profile following BTK degradation, MOLM-14 cells were treated in duplicate with 200 nM of RC-1, RNC-1, IRC-1, or RC-1-Me for 24 h, and then the cells were collected and processed for proteomics analysis (Sanford Burnham Prebys Medical Discovery Institute, La Jolla, California).
For cell lysis and protein digestion, cells were lysed with vigorous shaking (20 Hz for 10 min at room temperature by Retsch MM301 instrument) in 0.5 mL of lysis buffer (8 M urea, 50 mM ammonium bicarbonate (ABC); plus Benzonase 24U/100 ml), and extracted proteins were centrifuged at 14,000 × g for 10 min to remove cellular debris. Supernatant protein concentration was determined using a bicinchoninic acid (BCA) protein assay. Following quantification, the proteins were digested in solution. First, protein disulfide bonds were reduced with 5 mM tris(2-carboxyethyl)phosphine (TCEP) at 30 °C for 60 min, alkylated (carbamidomethylated) with 15 mM iodoacetamide (IAA) in the dark at room temperature for 30 min. Urea was then diluted to 1 M urea using 50 mM ammonium bicarbonate, and proteins were subjected to overnight digestion with mass spec grade Trypsin/Lys-C mix. Following digestion, samples were acidified with formic acid (FA) and subsequently desalted using Waters Sep-Pak C18. Cartridges were sequentially conditioned with 100% acetonitrile (ACN) and 0.1% FA, samples were then loaded, washed with 0.1% FA, and peptides eluted with 60% ACN, 0.1% FA. Finally, the organic solvent was removed in a SpeedVac concentrator prior to LC-MS/MS analysis.
Prior to TMT labeling, sample peptide amount was quantified using a NanoDrop^TM spectrophotometer (ThermoFisher). Samples were labeled according to the table schematic shown below using our TMT protocol. Briefly, a normalized amount of peptides sample was resuspended in 200 mM HEPES pH 8, and then labeled with one of the TMT10-plex reagents for 1 h at room temperature. TMT labels/channels were as follows:
Reactions were quenched with 5% hydroxylamine solution. The 10 samples were then combined, dried down in a SpeedVac system, resuspended in 0.1% FA, and desalted as described above. After desalting, the organic solvent was removed in a SpeedVac concentrator.
Dried samples were reconstituted in 20 mM ammonium formate pH ~10, and fractionated by high pH reverse phase using a Waters Acquity CSH C18 2.1-µm 1 × 150 mm column mounted on an M-Class Ultra Performance Liquid Chromatography (UPLC) system (Waters corp., Milford, MA). […] A total of 36 fractions were collected and pooled in a non-contiguous manner into 18 total fractions: 1 + 19, 2 + 20, 3 + 21, 4 + 22, 5 + 23, 6 + 24, 7 + 25, 8 + 26, 9 + 27, 10 + 28, 11 + 29, 12 + 30, 13 + 31, 14 + 32, 15 + 33, 16 + 34, 17 + 35, and 18 + 36. Pooled fractions were dried to completeness in a SpeedVac concentrator.
Dried fractions were reconstituted with 2% ACN-0.1% FA and analyzed by LC-MS/MS using a nanoACQUITY system (Waters) coupled to an Orbitrap Fusion Lumos mass spectrometer (Thermo Fisher Scientific). […] The mass spectrometer was operated in positive data-dependent acquisition mode. MS1 spectra were measured in the Orbitrap with a resolution of 60,000 (AGC target: 4e5; maximum injection time: 50 ms; mass range: from 350 to 1500 m/z). The instrument was set to run in top speed mode with 3 s cycles for the survey and the MS/MS scans. After a survey scan, tandem MS was performed in the Ion Routing Multipole HCD-Cell on the most abundant precursors by isolating them in the quadrupole (Isolation window: 0.7 m/z; charge state: +2–7; collision energy: 35%). […] The dynamic exclusion was set to 20 s with a 10-ppm mass tolerance around the precursor and its isotopes.
For data analysis, all mass spectra were analyzed with MaxQuant software version 1.5.5.1. MS/MS spectra were searched against the Homo sapiens Uniprot protein sequence database (version January 2018) and GPM cRAP sequences (commonly known protein contaminants). […]

CN(CCCNC(=O)CNc1cccc2c1C(=O)N(C1CCC(=O)NC1=O)C2=O)CCCC(=O)N1CCCC(n2nc(-c3ccc(Oc4ccccc4)cc3)c3c(N)ncnc32)C1 (stereo not drawn) [RNC-1]
Intracellular concentration: Concentration of compound, AVE (MOLM-14 cells [1]; 5 min): 0.0812 µM | intracellular amount, AVE (MOLM-14 cells [1]; 5 min): 0.0325 nmol | intracellular amount (MOLM-14 cells [1]; 5 min, single replicates): 0.0283 nmol and 0.0378 nmol and 0.0313 nmol | Intracellular concentration: Concentration of compound (MOLM-14 cells [1]; 5 min, single replicates): 0.0707 µM and 0.0946 µM and 0.0782 µM | Intracellular concentration: Concentration of compound, AVE (MOLM-14 cells [1]; 15 min): 0.0738 µM | intracellular amount, AVE (MOLM-14 cells [1]; 15 min): 0.0295 nmol | intracellular amount (MOLM-14 cells [1]; 15 min, single replicates): 0.0286 nmol and 0.0292 nmol and 0.0308 nmol | Intracellular concentration: Concentration of compound (MOLM-14 cells [1]; 15 min, single replicates): 0.0714 µM and 0.0730 µM and 0.0769 µM | Intracellular concentration: Concentration of compound, AVE (MOLM-14 cells [1]; 30 min): 0.0681 µM | intracellular amount, AVE (MOLM-14 cells [1]; 30 min): 0.0272 nmol | intracellular amount (MOLM-14 cells [1]; 30 min, single replicates): 0.0255 nmol and 0.0275 nmol and 0.0287 nmol | Intracellular concentration: Concentration of compound (MOLM-14 cells [1]; 30 min, single replicates): 0.0636 µM and 0.0688 µM and 0.0717 µM | Intracellular concentration: Concentration of compound, AVE (MOLM-14 cells [1]; 60 min): 0.0458 µM | intracellular amount, AVE (MOLM-14 cells [1]; 60 min): 0.0183 nmol | intracellular amount (MOLM-14 cells [1]; 60 min, single replicates): 0.0183 nmol and 0.0188 nmol and 0.0180 nmol | Intracellular concentration: Concentration of compound (MOLM-14 cells [1]; 60 min, single replicates): 0.0457 µM and 0.0469 µM and 0.0450 µM | Intracellular concentration: Concentration of compound, AVE (MOLM-14 cells [1]; 90 min): 0.0470 µM | intracellular amount, AVE (MOLM-14 cells [1]; 90 min): 0.0188 nmol | intracellular amount (MOLM-14 cells [1]; 90 min, single replicates): 0.0195 nmol and 0.0181 nmol and 0.0187 nmol | Intracellular concentration: Concentration of compound (MOLM-14 cells [1]; 90 min, single replicates): 0.0488 µM and 0.0453 µM and 0.0468 µM | Intracellular concentration: Concentration of compound, AVE (MOLM-14 cells [1]; 120 min): 0.0445 µM | intracellular amount, AVE (MOLM-14 cells [1]; 120 min): 0.0178 nmol | intracellular amount (MOLM-14 cells [1]; 120 min, single replicates): 0.0166 nmol and 0.0169 nmol and 0.0199 nmol | Intracellular concentration: Concentration of compound (MOLM-14 cells [1]; 120 min, single replicates): 0.0414 µM and 0.0423 µM and 0.0498 µM | Intracellular concentration: Concentration of compound, AVE (MOLM-14 cells [1]; 240 min): 0.0399 µM | intracellular amount, AVE (MOLM-14 cells [1]; 240 min): 0.0160 nmol | intracellular amount (MOLM-14 cells [1]; 240 min, single replicates): 0.0161 nmol and 0.0163 nmol and 0.0155 nmol | Intracellular concentration: Concentration of compound (MOLM-14 cells [1]; 240 min, single replicates): 0.0402 µM and 0.0408 µM and 0.0387 µM | Cellular concentration (MOLM-14 cells [1]; 5 min, Mean): 0.0325 nmol/million cells | Cellular concentration (MOLM-14 cells [1]; 5 min, single replicates, MOLM-14, 200 nM): 0.0313 nmol/million cells and 0.0283 nmol/million cells and 0.0378 nmol/million cells | Cellular concentration (MOLM-14 cells [1]; 15 min, Mean): 0.0295 nmol/million cells | Cellular concentration (MOLM-14 cells [1]; 15 min, single replicates, MOLM-14, 200 nM): 0.0308 nmol/million cells and 0.0286 nmol/million cells and 0.0292 nmol/million cells | Cellular concentration (MOLM-14 cells [1]; 30 min, Mean): 0.0272 nmol/million cells | Cellular concentration (MOLM-14 cells [1]; 30 min, single replicates, MOLM-14, 200 nM): 0.0287 nmol/million cells and 0.0255 nmol/million cells and 0.0275 nmol/million cells | Cellular concentration (MOLM-14 cells [1]; 60 min, Mean): 0.0183 nmol/million cells | Cellular concentration (MOLM-14 cells [1]; 60 min, single replicates, MOLM-14, 200 nM): 0.0180 nmol/million cells and 0.018 nmol/million cells and 0.0183 nmol/million cells and 0.0188 nmol/million cells | Cellular concentration (MOLM-14 cells [1]; 90 min, Mean): 0.0188 nmol/million cells | Cellular concentration (MOLM-14 cells [1]; 90 min, single replicates, MOLM-14, 200 nM): 0.0187 nmol/million cells and 0.0195 nmol/million cells and 0.0181 nmol/million cells | Cellular concentration (MOLM-14 cells [1]; 120 min, Mean): 0.0178 nmol/million cells | Cellular concentration (MOLM-14 cells [1]; 120 min, single replicates, MOLM-14, 200 nM): 0.0199 nmol/million cells and 0.0166 nmol/million cells and 0.0169 nmol/million cells | Cellular concentration (MOLM-14 cells [1]; 240 min, Mean): 0.0160 nmol/million cells and 0.016 nmol/million cells | Cellular concentration (MOLM-14 cells [1]; 240 min, single replicates, MOLM-14, 200 nM): 0.0155 nmol/million cells and 0.0161 nmol/million cells and 0.0163 nmol/million cells | degradation of IMiD-dependent substrates IKZF1, ZFP91, ZNF692 (MOLM-14 cells [2]): specifically degraded | kinases degraded (proteomics) (MOLM-14 cells [2]): 7

CN1C(=O)CCC(N2C(=O)c3cccc(NCC(=O)NCCCN(C)C(C)(C)C=C(C#N)C(=O)N4CCCC(n5nc(-c6ccc(Oc7ccccc7)cc6)c6c(N)ncnc65)C4)c3C2=O)C1=O (stereo not drawn) [RC-1-Me]
kinases degraded (proteomics) (MOLM-14 cells [2]): no degradation is observed
